Data from patent US11209582B2, “Composition, curable composition, cured film, near infrared cut filter, infrared transmitting filter, solid image pickup element, infrared sensor, and camera module” (FUJIFILM Corporation, priority 2016, dated 2021).

Assay: Absorption spectrum in solution (absorption maximum λmax, absorption coefficient)
Assay type: physicochemical
Conditions: not given
Description: It is preferable that the compound represented by Formula (1) is a compound having an absorption maximum in a wavelength range of 700 to 1200 nm. In addition, a ratio A1/A2 of an absorbance A1 at a wavelength of 500 nm to an absorbance A2 at the absorption maximum is preferably 0.1 or lower and more preferably 0.05 or lower. The absorbance of the compound is a value obtained from the absorption spectrum of the compound in the solution. Examples of a measurement solvent used for the measurement of the absorption spectrum of the compound represented by Formula (1) in the solution include chloroform, dimethyl sulfoxide, and tetrahydrofuran. In a case where the compound represented by Formula (1) is soluble in chloroform, chloroform is used as the measurement solvent. In addition, in a case where the compound represented by Formula (1) is not soluble in chloroform and is soluble in dimethyl sulfoxide or tetrahydrofuran, dimethyl sulfoxide or tetrahydrofuran is used as the measurement solvent.

Which gram absorption coefficient does the source give for `COc1ccc2sc(C(C#N)=c3c4c(-c5ccc(O)cc5)n(B(c5ccccc5)c5ccccc5)c(=C(C#N)c5nc6cc(OC)ccc6s5)c4c(-c4ccc(O)cc4)n3B(c3ccccc3)c3ccccc3)nc2c1` [A-15] here?
Its gram absorption coefficient is 200 L/g/cm.

And the molar absorption coefficient?
The molar absorption coefficient was 185000 L/mol/cm.

Same assay, conditions: in chloroform

For `CCC(C)COc1ccc(-c2c3c(=C(C#N)c4nc5ccccc5s4)n(B(c4ccccc4)c4ccccc4)c(-c4ccc(OCC(C)CC)cc4)c3c(=C(C#N)c3nc4ccccc4s3)n2B(c2ccccc2)c2ccccc2)cc1` (centres unmarked) [A-1], which “λmax (absorption maximum)” value is on record?
The value was 780 nm.

Which “λmax (absorption maximum)” value does the source give for `CCC(C)COc1ccc(-c2c3c(=C(C#N)c4nc5cc(Cl)ccc5s4)n(B(c4ccccc4)c4ccccc4)c(-c4ccc(OCC(C)CC)cc4)c3c(=C(C#N)c3nc4cc(Cl)ccc4s3)n2B(c2ccccc2)c2ccccc2)cc1` (centres unmarked) [A-2] here?
Its value is 782 nm.

Which “λmax (absorption maximum)” value does the source give for `CCC(C)COc1ccc(-c2c3c(=C(C#N)c4nc5ccc(Cl)cc5s4)n(B(c4ccccc4)c4ccccc4)c(-c4ccc(OCC(C)CC)cc4)c3c(=C(C#N)c3nc4ccc(Cl)cc4s3)n2B(c2ccccc2)c2ccccc2)cc1` (centres unmarked) [A-3] here?
Its value is 786 nm.

For `CCC(C)COc1ccc(-c2c3c(=C(C#N)c4nc5cc(C)ccc5s4)n(B(c4ccccc4)c4ccccc4)c(-c4ccc(OCC(C)CC)cc4)c3c(=C(C#N)c3nc4cc(C)ccc4s3)n2B(c2ccccc2)c2ccccc2)cc1` (centres unmarked) [A-4], which “λmax (absorption maximum)” value is on record?
The value was 785 nm.

Which “λmax (absorption maximum)” value does the source give for `CCC(C)COc1ccc(-c2c3c(=C(C#N)c4nc5ccc(C)cc5s4)n(B(c4ccccc4)c4ccccc4)c(-c4ccc(OCC(C)CC)cc4)c3c(=C(C#N)c3nc4ccc(C)cc4s3)n2B(c2ccccc2)c2ccccc2)cc1` (centres unmarked) [A-5] here?
The value was 788 nm.

Which “λmax (absorption maximum)” value does the source give for `CCC(C)COc1ccc(-c2c3c(=C(C#N)c4nc5cc(C)c(C)cc5s4)n(B(c4ccccc4)c4ccccc4)c(-c4ccc(OCC(C)CC)cc4)c3c(=C(C#N)c3nc4cc(C)c(C)cc4s3)n2B(c2ccccc2)c2ccccc2)cc1` (centres unmarked) [A-6] here?
Its value is 794 nm.

With `CCC(C)COc1ccc(-c2c3c(=C(C#N)c4nc5cc(OC)ccc5s4)n(B(c4ccccc4)c4ccccc4)c(-c4ccc(OCC(C)CC)cc4)c3c(=C(C#N)c3nc4cc(OC)ccc4s3)n2B(c2ccccc2)c2ccccc2)cc1` (centres unmarked) [A-7] as the compound, how does the “λmax (absorption maximum)” value read?
Its value is 794 nm.

With `CCC(C)COc1ccc(-c2c3c(=C(C#N)c4nc5ccc(OC)cc5s4)n(B(c4ccccc4)c4ccccc4)c(-c4ccc(OCC(C)CC)cc4)c3c(=C(C#N)c3nc4ccc(OC)cc4s3)n2B(c2ccccc2)c2ccccc2)cc1` (centres unmarked) [A-8] as the compound, how does the “λmax (absorption maximum)” value read?
Its value is 802 nm.

Which “λmax (absorption maximum)” value does the source give for `CCC(C)COc1cccc(-c2c3c(=C(C#N)c4nc5ccccc5s4)n(B(c4ccccc4)c4ccccc4)c(-c4cccc(OCC(C)CC)c4)c3c(=C(C#N)c3nc4ccccc4s3)n2B(c2ccccc2)c2ccccc2)c1` (centres unmarked) [A-25] here?
The value was 782 nm.

Which “λmax (absorption maximum)” value does the source give for `CCC(C)COc1cccc(-c2c3c(=C(C#N)c4nc5cc(C)c(C)cc5s4)n(B(c4ccccc4)c4ccccc4)c(-c4cccc(OCC(C)CC)c4)c3c(=C(C#N)c3nc4cc(C)c(C)cc4s3)n2B(c2ccccc2)c2ccccc2)c1` (centres unmarked) [A-30] here?
Its value is 795 nm.

For `CCC(C)COc1ccc(-c2c3c(=C(C#N)c4nc5ccccc5s4)n(B4Oc5ccccc5O4)c(-c4ccc(OCC(C)CC)cc4)c3c(=C(C#N)c3nc4ccccc4s3)n2B2Oc3ccccc3O2)cc1` (centres unmarked) [A-60], which “λmax (absorption maximum)” value is on record?
The value was 717 nm.

With `COc1ccc2sc(C(C#N)=c3c4c(-c5ccc(OC(=O)c6ccccc6)cc5)n(B(c5ccccc5)c5ccccc5)c(=C(C#N)c5nc6cc(OC)ccc6s5)c4c(-c4ccc(OC(=O)c5ccccc5)cc4)n3B(c3ccccc3)c3ccccc3)nc2c1` [A-81] as the compound, how does the “λmax (absorption maximum)” value read?
Its value is 800 nm.

Which “λmax (absorption maximum)” value does the source give for `CCC(C)COc1ccc(-c2c3/c(=C(\C#N)c4cnc5ccccc5n4)n(B(c4ccccc4)c4ccccc4)c(-c4ccc(OCC(C)CC)cc4)c3/c(=C(\C#N)c3cnc4ccccc4n3)n2B(c2ccccc2)c2ccccc2)cc1` (centres unmarked) [A-201] here?
The value was 862 nm.

For `CN1C(=O)c2ccc(C(=O)Oc3ccc(-c4c5c(=C(C#N)c6cnc7cc(Cl)c(Cl)cc7n6)n(B(c6ccccc6)c6ccccc6)c(-c6ccc(OC(=O)c7ccc8c(c7)C(=O)N(C)C8=O)cc6)c5c(=C(C#N)c5cnc6cc(Cl)c(Cl)cc6n5)n4B(c4ccccc4)c4ccccc4)cc3)cc2C1=O` [A-514], which “λmax (absorption maximum)” value is on record?
The value was 883 nm.

For `CCN(CC)CCCN1C(=O)c2ccc(C(=O)Oc3ccc(-c4c5/c(=C(\C#N)c6cnc7cc(Cl)c(Cl)cc7n6)n(B(c6ccccc6)c6ccccc6)c(-c6ccc(OC(=O)c7ccc8c(c7)C(=O)N(CCCN(CC)CC)C8=O)cc6)c5/c(=C(\C#N)c5cnc6cc(Cl)c(Cl)cc6n5)n4B(c4ccccc4)c4ccccc4)cc3)cc2C1=O` [B-644], which “λmax (absorption maximum)” value is on record?
Its value is 883 nm.

Same assay, conditions: in dimethyl sulfoxide (DMSO)

With `N#CC(c1nc2ccccc2s1)=c1c2c(-c3ccc(O)cc3)n(B(c3ccccc3)c3ccccc3)c(=C(C#N)c3nc4ccccc4s3)c2c(-c2ccc(O)cc2)n1B(c1ccccc1)c1ccccc1` [A-9] as the compound, how does the “λmax (absorption maximum)” value read?
The value was 782 nm.

Which “λmax (absorption maximum)” value does the source give for `N#CC(c1nc2cc(Cl)ccc2s1)=c1c2c(-c3ccc(O)cc3)n(B(c3ccccc3)c3ccccc3)c(=C(C#N)c3nc4cc(Cl)ccc4s3)c2c(-c2ccc(O)cc2)n1B(c1ccccc1)c1ccccc1` [A-10] here?
Its value is 782 nm.

Which “λmax (absorption maximum)” value does the source give for `Cc1cc2nc(C(C#N)=c3c4c(-c5ccc(O)cc5)n(B(c5ccccc5)c5ccccc5)c(=C(C#N)c5nc6cc(C)c(C)cc6s5)c4c(-c4ccc(O)cc4)n3B(c3ccccc3)c3ccccc3)sc2cc1C` [A-14] here?
The value was 795 nm.

For `COc1ccc2sc(C(C#N)=c3c4c(-c5ccc(O)cc5)n(B(c5ccccc5)c5ccccc5)c(=C(C#N)c5nc6cc(OC)ccc6s5)c4c(-c4ccc(O)cc4)n3B(c3ccccc3)c3ccccc3)nc2c1` [A-15], which “λmax (absorption maximum)” value is on record?
Its value is 795 nm.

Assay: Measurement of solubility in solvent at 25° C.
Assay type: physicochemical
Conditions: organic solvent or mixture, thermodynamic from solid; in propylene glycol monomethyl ether acetate and 2-butanol at 25° C.
Protocol: <Measurement of Solubility>
A measurement sample was added to a solvent at 25° C. under the atmospheric pressure, the solution was stirred for 1 hour, and the solubility of the measurement sample in the solvent was obtained.

For `N#C/C(c1cnc2cc(Cl)c(Cl)cc2n1)=c1\c2c(-c3ccc(OC(=O)c4ccc5c(c4)C(=O)N(CCCS(=O)(=O)O)C5=O)cc3)n(B(c3ccccc3)c3ccccc3)/c(=C(/C#N)c3cnc4cc(Cl)c(Cl)cc4n3)c2c(-c2ccc(OC(=O)c3ccc4c(c3)C(=O)N(CCCS(=O)(=O)O)C4=O)cc2)n1B(c1ccccc1)c1ccccc1` [B-634], which solubility at 1 h is on record?
Its solubility at 1 h is < 0.1 mg/mL.

For `CCN(CC)CCCN1C(=O)c2ccc(C(=O)Oc3ccc(-c4c5/c(=C(\C#N)c6cnc7cc(Cl)c(Cl)cc7n6)n(B(c6ccccc6)c6ccccc6)c(-c6ccc(OC(=O)c7ccc8c(c7)C(=O)N(CCCN(CC)CC)C8=O)cc6)c5/c(=C(\C#N)c5cnc6cc(Cl)c(Cl)cc6n5)n4B(c4ccccc4)c4ccccc4)cc3)cc2C1=O` [B-644], which solubility at 1 h is on record?
Its solubility at 1 h is < 0.1 mg/mL.
